Source: ChEMBL document CHEMBL1201862, “PubChem BioAssay data set” (2004)
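Method: 48-hour compound exposure of cells in 96-well plates, five concentrations, linear interpolation of endpoints. Here, GI50 denotes the concentration required for 50% inhibition of growth.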 Active and inactive are the calls of the source. Rule as the data show it: active = GI50 up to about 1.1 µM and inactive = higher.

What was measured:
Assay in all cases: NCI anticancer screen, dose series, 48 h
A549 = tested on: A549
CCRF-CEM = tested on: CCRF-CEM
NCI-H226 = tested on: NCI-H226
TK-10 = tested on: TK-10
OVCAR-8 = tested on: OVCAR-8
SN12C = tested on: SN12C
DU-145 = tested on: DU-145
786-0 = tested on: 786-0
OVCAR-3 = tested on: OVCAR-3
OVCAR-4 = tested on: OVCAR-4
HOP-92 = tested on: HOP-92
NCI-H23 = tested on: NCI-H23
UACC-257 = tested on: UACC-257
RXF 393 = tested on: RXF 393
NCI-H460 = tested on: NCI-H460
OVCAR-5 = tested on: OVCAR-5
ACHN = tested on: ACHN
HOP-62 = tested on: HOP-62
RPMI-8226 = tested on: RPMI-8226
A498 = tested on: A498

Measured: GI50

O=C(CC1C=CCS1(=O)=O)NCc1ccccc1 (stereo not given)
inactive: A549 > 100 µM | CCRF-CEM > 100 µM | NCI-H226 > 100 µM | TK-10 > 100 µM | OVCAR-8 > 100 µM | SN12C > 100 µM | DU-145 > 100 µM | 786-0 > 100 µM | OVCAR-3 > 100 µM | OVCAR-4 > 100 µM | HOP-92 > 100 µM | NCI-H23 > 100 µM | UACC-257 > 100 µM | RXF 393 > 100 µM | NCI-H460 > 100 µM | OVCAR-5 > 100 µM | ACHN > 100 µM | HOP-62 > 100 µM

COc1ccc(N2C(=O)C3c4[nH]c5ccc(C)cc5c4C4CCC(C(C)(C)C)CC4C3C2=O)cc1 (stereo not given)
inactive: A549 6.9 µM | CCRF-CEM 4.84 µM | NCI-H226 21.1 µM | TK-10 17.1 µM | OVCAR-8 6.21 µM | SN12C 48.4 µM | DU-145 > 100 µM | 786-0 20.4 µM | OVCAR-3 10 µM | OVCAR-4 3.35 µM | RPMI-8226 11.2 µM | NCI-H23 22.3 µM | UACC-257 23.8 µM | RXF 393 16.9 µM | NCI-H460 6.22 µM | ACHN 7.64 µM | HOP-62 13.6 µM

NC(=S)N/N=C(\Cc1nc2ccc(Cl)cc2nc1O)C(=O)Nc1ccc(Cl)cc1
inactive: A549 > 100 µM | CCRF-CEM > 100 µM | NCI-H226 96.2 µM | TK-10 > 100 µM | OVCAR-8 > 100 µM | SN12C > 100 µM | DU-145 > 100 µM | 786-0 > 100 µM | OVCAR-3 > 100 µM | OVCAR-4 > 100 µM | HOP-92 40.3 µM | NCI-H23 > 100 µM | UACC-257 > 100 µM | RXF 393 > 100 µM | NCI-H460 > 100 µM | OVCAR-5 > 100 µM | ACHN > 100 µM | HOP-62 > 100 µM

Cc1cc(Br)cc(C)c1NC(=O)C(=O)CC(=O)c1sc(-n2nc(-c3ccccc3)cc2-c2ccccc2)nc1C
inactive: A549 > 100 µM | CCRF-CEM > 100 µM | NCI-H226 > 100 µM | TK-10 > 100 µM | OVCAR-8 > 100 µM | SN12C > 100 µM | 786-0 > 100 µM | OVCAR-3 > 100 µM | OVCAR-4 > 100 µM | RPMI-8226 > 100 µM | HOP-92 > 100 µM | NCI-H23 > 100 µM | A498 > 100 µM | UACC-257 > 100 µM | RXF 393 > 100 µM | NCI-H460 > 100 µM | OVCAR-5 > 100 µM | ACHN > 100 µM | HOP-62 > 100 µM

Cc1ccc(/N=N/N(C)C(C)C(O)Cc2ccccc2)cc1 (stereo not given)
inactive: A549 60.5 µM | CCRF-CEM 32.7 µM | NCI-H226 > 100 µM | TK-10 29 µM | OVCAR-8 37.7 µM | SN12C 27.9 µM | DU-145 52.1 µM | 786-0 59.4 µM | OVCAR-3 84.3 µM | OVCAR-4 > 100 µM | RPMI-8226 12.4 µM | NCI-H23 50.9 µM | UACC-257 84.9 µM | RXF 393 40.6 µM | NCI-H460 36.5 µM | OVCAR-5 > 100 µM | ACHN 78.5 µM | HOP-62 > 100 µM

CN(C)CCNC(=O)c1cccc(CO)c1[N+](=O)[O-]
inactive: A549 > 100 µM | CCRF-CEM > 100 µM | NCI-H226 > 100 µM | TK-10 > 100 µM | OVCAR-8 > 100 µM | SN12C > 100 µM | DU-145 > 100 µM | 786-0 > 100 µM | OVCAR-3 > 100 µM | NCI-H23 > 100 µM | A498 > 100 µM | UACC-257 > 100 µM | NCI-H460 > 100 µM | OVCAR-5 > 100 µM | ACHN > 100 µM | HOP-62 > 100 µM

CCc1cccc(C)c1NC(=S)NC(=O)c1ccccc1C(=O)NC(=S)Nc1c(C)cccc1CC
inactive: A549 90.4 µM | CCRF-CEM 36.3 µM | NCI-H226 50.4 µM | TK-10 > 100 µM | OVCAR-8 95.1 µM | SN12C > 100 µM | 786-0 > 100 µM | OVCAR-3 23.8 µM | OVCAR-4 69.3 µM | RPMI-8226 60 µM | HOP-92 19.1 µM | NCI-H23 35.6 µM | A498 > 100 µM | UACC-257 > 100 µM | RXF 393 > 100 µM | NCI-H460 67.8 µM | OVCAR-5 > 100 µM | ACHN > 100 µM | HOP-62 > 100 µM

CC(=O)c1ccccc1NCC(=O)Nn1cnc2ccc(S(=O)(=O)Nc3ccccc3C(C)=O)cc2c1=O
inactive: A549 > 100 µM | CCRF-CEM > 100 µM | NCI-H226 > 100 µM | TK-10 > 100 µM | OVCAR-8 > 100 µM | SN12C > 100 µM | DU-145 > 100 µM | 786-0 > 100 µM | OVCAR-3 > 100 µM | OVCAR-4 > 100 µM | RPMI-8226 > 100 µM | HOP-92 > 100 µM | NCI-H23 > 100 µM | UACC-257 > 100 µM | NCI-H460 > 100 µM | OVCAR-5 > 100 µM | ACHN > 100 µM | HOP-62 > 100 µM

CCC1(CC)C(=O)NN(C(=O)c2ccc(Cl)cc2)C1=O
inactive: A549 > 100 µM | CCRF-CEM > 100 µM | NCI-H226 > 100 µM | TK-10 > 100 µM | OVCAR-8 > 100 µM | SN12C > 100 µM | DU-145 > 100 µM | 786-0 > 100 µM | OVCAR-3 > 100 µM | OVCAR-4 > 100 µM | RPMI-8226 > 100 µM | NCI-H23 > 100 µM | UACC-257 > 100 µM | RXF 393 > 100 µM | NCI-H460 > 100 µM | OVCAR-5 > 100 µM | ACHN > 100 µM | HOP-62 > 100 µM

O=C1c2ccccc2-c2c1c(-c1ccc(O)cc1O)nc1ccc3ccccc3c21
inactive: A549 > 100 µM | CCRF-CEM > 100 µM | NCI-H226 > 100 µM | OVCAR-8 79.6 µM | SN12C > 100 µM | DU-145 > 100 µM | 786-0 > 100 µM | OVCAR-4 > 100 µM | RPMI-8226 > 100 µM | NCI-H23 > 100 µM | A498 > 100 µM | UACC-257 > 100 µM | NCI-H460 > 100 µM | OVCAR-5 > 100 µM | ACHN > 100 µM | HOP-62 49 µM

Cc1ccc(S(=O)(=O)N/N=C2/CCC3(O)CC2(C)CCC2[C@H]3CC2(C)C)cc1 (stereo not given in full)
inactive: A549 27.3 µM | CCRF-CEM 12 µM | NCI-H226 27.2 µM | TK-10 34.3 µM | OVCAR-8 34.7 µM | SN12C 33.3 µM | DU-145 36.6 µM | 786-0 31.8 µM | OVCAR-3 40.2 µM | OVCAR-4 35.9 µM | RPMI-8226 38.4 µM | HOP-92 29.2 µM | NCI-H23 37.3 µM | UACC-257 37.8 µM | NCI-H460 22.8 µM | OVCAR-5 29.4 µM | ACHN 29.8 µM | HOP-62 43 µM
